Laboratory results taken from ChEMBL document CHEMBL2321862, “Development and evaluation of novel phosphotyrosine mimetic inhibitors targeting the Src homology 2 domain of signaling lymphocytic activation molecule (SLAM) associated protein” (J Med Chem, 2013).
The source made the active and inactive calls. The rule behind the calls is not given here.

Experiments:
[1] = target: T1, SH2 domain-containing protein 1A (Homo sapiens) (UniProt O60880); experiment: Inhibition of recombinant 6-His-tagged SLAM associated protein SH2 domain (unknown origin) expressed in Escherichia coli BL21(DE3) binding to biotinyl-KKSLTIpYAQVQK-NH2 attached to NeutrAvidin-coated plates using p-nitrophenyl phosphate as substrate at 100 uM after 1 hr
T1 sequence (whole entry): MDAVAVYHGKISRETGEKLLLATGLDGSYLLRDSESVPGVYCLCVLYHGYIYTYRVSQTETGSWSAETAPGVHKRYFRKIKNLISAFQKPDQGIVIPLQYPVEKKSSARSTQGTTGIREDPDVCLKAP

[2] = target: T1, SH2 domain-containing protein 1A (Homo sapiens); experiment: Inhibition of recombinant 6-His-tagged SLAM associated protein SH2 domain (unknown origin) expressed in Escherichia coli BL21(DE3) binding to biotinyl-KKSLTIpYAQVQK-NH2 attached to NeutrAvidin-coated plates using p-nitrophenyl phosphate as substrate at 10 uM after 1 hr relative to control

| inhibition [1] | fold change (FC) [2] | SMILES |
| --- | --- | --- |
| Active | 0.89 | COC(=O)[C@H](Cc1ccc2c(c1)COP(=O)(O)O2)NC(=O)[C@H](Cc1c[nH]cn1)NC(=O)OCC1c2ccccc2-c2ccccc21 |
| Active | 1.13 | COC(=O)[C@H](Cc1ccc2c(c1)COP(=O)(O)O2)NC(=O)[C@H](CO)NC(=O)OCC1c2ccccc2-c2ccccc21 |
| Active | 0.85 | COC(=O)[C@H](Cc1ccc2c(c1)COP(=O)(O)O2)NC(=O)[C@H](COC(C)(C)C)NC(=O)OCC1c2ccccc2-c2ccccc21 |
| Active | 0.9 | NC(=O)[C@H](CO)NC(=O)[C@H](Cc1ccc2c(c1)COP(=O)(O)O2)NC(=O)OCC1c2ccccc2-c2ccccc21 |
| Active | 0.77 | COC(=O)[C@H](Cc1ccc2c(c1)COP(=O)(O)O2)NC(=O)CNC(=O)OCC1c2ccccc2-c2ccccc21 |
| Active | 1.51 | CC[C@H](C)[C@H](NC(=O)OCC1c2ccccc2-c2ccccc21)C(=O)N[C@@H](Cc1ccc2c(c1)COP(=O)(O)O2)C(=O)OC |
| Active | 0.85 | COC(=O)[C@H](Cc1ccc2c(c1)COP(=O)(O)O2)NC(=O)[C@H](CCSC)NC(=O)OCC1c2ccccc2-c2ccccc21 |
| Active | 1.17 | COC(=O)[C@H](Cc1ccc2c(c1)COP(=O)(O)O2)NC(=O)[C@H](CC(C)C)NC(=O)OCC1c2ccccc2-c2ccccc21 |
| Active | 0.95 | COC(=O)[C@H](Cc1ccc2c(c1)COP(=O)(O)O2)NC(=O)[C@H](CCC(=O)O)NC(=O)OCC1c2ccccc2-c2ccccc21 |
| Active | 0.84 | COC(=O)[C@H](Cc1ccc2c(c1)COP(=O)(O)O2)NC(=O)[C@H](CC(=O)O)NC(=O)OCC1c2ccccc2-c2ccccc21 |
| Active | 0.82 | COC(=O)[C@H](Cc1ccc2c(c1)COP(=O)(O)O2)NC(=O)[C@@H](NC(=O)OCC1c2ccccc2-c2ccccc21)[C@@H](C)O |

The remaining lines, values behind:

| SMILES | inhibition [1] | fold change (FC) [2] |
| --- | --- | --- |
| CC(C)(C)OC(=O)n1cc(C[C@H](NC(=O)[C@H](Cc2ccc3c(c2)COP(=O)(O)O3)NC(=O)OCC2c3ccccc3-c3ccccc32)C(N)=O)c2ccccc21 | Active | 1.33 |
| COC(=O)[C@H](Cc1ccc2c(c1)COP(=O)(O)O2)NC(=O)[C@H](Cc1ccccc1)NC(=O)OCC1c2ccccc2-c2ccccc21 | Active | 0.84 |
| NC(=O)[C@H](Cc1ccc(O)cc1)NC(=O)[C@H](Cc1ccc2c(c1)COP(=O)(O)O2)NC(=O)OCC1c2ccccc2-c2ccccc21 | Active | 0.95 |
| C[C@@H](O)[C@H](NC(=O)[C@H](Cc1ccc2c(c1)COP(=O)(O)O2)NC(=O)OCC1c2ccccc2-c2ccccc21)C(N)=O | Active | 1.22 |
| COC(=O)[C@H](Cc1ccc2c(c1)COP(=O)(O)O2)NC(=O)[C@H](Cc1cn(C(=O)OC(C)(C)C)c2ccccc12)NC(=O)OCC1c2ccccc2-c2ccccc21 | Active | 1.2 |
| CC(C)[C@H](NC(=O)[C@H](Cc1ccc2c(c1)COP(=O)(O)O2)NC(=O)OCC1c2ccccc2-c2ccccc21)C(N)=O | Active | 1 |
| NC(=O)[C@H](Cc1c[nH]c2ccccc12)NC(=O)[C@H](Cc1ccc2c(c1)COP(=O)(O)O2)NC(=O)OCC1c2ccccc2-c2ccccc21 | Active | 1.36 |
| CC[C@H](C)[C@H](NC(=O)[C@H](Cc1ccc2c(c1)COP(=O)(O)O2)NC(=O)OCC1c2ccccc2-c2ccccc21)C(N)=O | Active | 1.05 |
| COC(=O)[C@H](Cc1ccc2c(c1)COP(=O)(O)O2)NC(=O)[C@H](CCC(=O)NC(c1ccccc1)(c1ccccc1)c1ccccc1)NC(=O)OCC1c2ccccc2-c2ccccc21 | Active | 1.11 |
